Reference: patent US20010051630A1, “Use of hydroxylamine derivatives, and method and preparations for increasing the tolerance of field crops against weather stresses” (priority 1997, published 2001)
Marks after values point to notes of the source that are not given here.

Tests used:
Mo 17 inbred maize line = test: CSVT (Complex Stressing Vigour Test), seeds soaked in active agent, Mo 17 maize; assay type: in vivo; details: seeds soaked in 10 mg/l active agent, * = significant vs control P < 0.05
Method: (§1) In this experiment the tolerance of maize, soybean and pepper seeds treated with the active agent against cold was tested. This test imposed temperature and oxygen deficiency stresses on the seeds and was carried out according to Barla-Szabó and Dolinka CSVT (Complex Stressing Vigour Test). For a single test, two hundred seeds were soaked for 48 hours at 25° C. and another 48 hours at 5° C in 150 ml distilled water containing the active agent in 10 mg/l concentration. Following the 96 hours of soaking, the seeds were further germinated between rolled wet paper for 96 hours at 25° C. There were 25 seeds in each roll, the rolls were placed vertically into containers and covered with a plastic bag in order to reduce evaporation. During the whole procedure the seeds were kept in darkness. At the end of the experiment the number of normally developing and ungerminated seeds were recorded. The length of the normal seedlings was measured and the average length of the five longest seedlings was calculated. Seedlings longer than 0.33 times the average length of the five longest seedlings were considered to be of high vigour, and low vigour seedlings were shorter than this length.

HMv09 inbred maize line = test: CSVT, seeds soaked in active agent, HMv09 maize; assay type: in vivo; details: seeds soaked in 10 mg/l active agent
Method: as §1

Row | Compound | Ratio of high vigour plants (%) (Mo 17 inbred maize line) | Ratio of high vigour plants (%) (HMv09 inbred maize line)
1 | CNC(=NOCCCN1CCCCC1)N(C)c1ccccc1.Cl [Compound 6, N-N′-dimethyl-N′-phenyl-N″-[3-(1-piperidinyl)propoxy]-guanidine hydrochloride] | 36* % | 
2 | CCCCCCN(OCC(O)CN1CCCCC1)C(N)=O (stereo not shown) [Compound 8, N-hexyl-N-[2-hydroxy-3-(1-piperidinyl)propoxyl]-urea] | 23* % | 
3 | CN(C)C(=NOCC(O)CN1CCCCC1)Nc1ccccc1.Cl (stereo not shown) [Compound 9, N,N-dimethyl-N′-phenyl-N″-[2-hydroxy-3-(1-piperidinyl)propoxy]-guanidine hydrochloride] |  | 56* %
4 | Cl.c1ccc(N=C(NOCCCN2CCCCC2)c2ccccc2)cc1 [Compound 11, N-[3-(1-piperidinyl)propoxy]-N′-phenyl-benzamidine hydrochloride] |  | 53* %
